Data on 22 compounds can be found in PubChem BioAssay AID192 (DTP/NCI, 2004).

Structures are written as SMILES. Where “and” joins values, the source holds several entries; their conditions need not be identical. Identical values can stand only once. Inconclusive results and toxic doses are left out. Peptide text beside a SMILES is read from it. * marks the point of attachment. Trt = c1ccc(C(c2ccccc2)(c2ccccc2)*)cc1; Cbz = O=C(OCc1ccccc1)*

The subject of this experiment is BDF1 mice, B16 melanoma ip, median survival T/C. Nature of the experiment: NCI In Vivo Anticancer Drug Screen. Data for tumor model B16 Melanoma (intraperitoneal) in B6D2F1 (BDF1) mice. The conditions noted are these: endpoint: median survival time, higher = longer survival. An outline of the steps:
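Each result divides a survival or tumor-size measurement in the compound-treated group by the same measurement in the vehicle group.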

Where [1] appears, read: dose: 25.0 mg/kg/injection, schedule: Q01DX009 (ip), vehicle: Klucel (hydroxypropylcellulose) (HPC).
Where [2] appears, read: dose: 100.0 mg/kg/injection, schedule: Q01DX009 (ip), vehicle: Klucel (hydroxypropylcellulose) (HPC).
The mark [3] stands for this setting: dose: 200.0 mg/kg/injection, schedule: Q01DX009 (ip), vehicle: Klucel (hydroxypropylcellulose) (HPC).
Where [4] appears, read: dose: 12.5 mg/kg/injection, schedule: Q01DX009 (ip), vehicle: saline.
[5] abbreviates: dose: 25.0 mg/kg/injection, schedule: Q01DX009 (ip), vehicle: saline.
Setting [6] is: dose: 50.0 mg/kg/injection, schedule: Q01DX009 (ip), vehicle: saline.
Setting [7] is: dose: 12.5 mg/kg/injection, schedule: Q01DX009 (ip), vehicle: saline with Tween-80.
Setting [8] is: dose: 25.0 mg/kg/injection, schedule: Q01DX009 (ip), vehicle: saline with Tween-80.
Where [9] appears, read: dose: 50.0 mg/kg/injection, schedule: Q01DX009 (ip), vehicle: saline with Tween-80.
[10] abbreviates: dose: 100.0 mg/kg/injection, schedule: Q01DX009 (ip), vehicle: saline with Tween-80.
The mark [11] stands for this setting: dose: 200.0 mg/kg/injection, schedule: Q01DX009 (ip), vehicle: saline with Tween-80.
Where [12] appears, read: dose: 400.0 mg/kg/injection, schedule: Q01DX009 (ip), vehicle: Klucel (hydroxypropylcellulose) (HPC).

`CCN(CC)C(=S)SSC(=S)N(CC)CC`: the T/C is, setting by setting: (dose: 0.78 mg/kg/injection, schedule: Q01DX009 (ip), vehicle: Klucel (hydroxypropylcellulose) (HPC)) 110 % of control; (dose: 1.56 mg/kg/injection, schedule: Q01DX009 (ip), vehicle: Klucel (hydroxypropylcellulose) (HPC)) 86 % of control; (dose: 3.12 mg/kg/injection, schedule: Q01DX009 (ip), vehicle: Klucel (hydroxypropylcellulose) (HPC)) 97 % of control; (dose: 6.25 mg/kg/injection, schedule: Q01DX009 (ip), vehicle: Klucel (hydroxypropylcellulose) (HPC)) 105 % of control; under setting [1], 92 % of control.

With `CC1CCC2C1C1C(CCC2(C)O)C1(C)C` (centres undefined), the T/C runs as follows: (dose: 75.0 mg/kg/injection, schedule: Q01DX009 (ip), vehicle: Klucel (hydroxypropylcellulose) (HPC)) 97 % of control; (dose: 150.0 mg/kg/injection, schedule: Q01DX009 (ip), vehicle: Klucel (hydroxypropylcellulose) (HPC)) 94 % of control; (dose: 300.0 mg/kg/injection, schedule: Q01DX009 (ip), vehicle: Klucel (hydroxypropylcellulose) (HPC)) 97 % of control.

With `COc1cc2cc(c1Cl)N(C)C(=O)CC(OC(=O)C(C)N(C)C(=O)C(C)C)C1(C)OC1C(C)C1CC(O)(NC(=O)O1)C(OC)/C=C/C=C(C)C2` (centres undefined), the T/C is 171 % of control (dose: 5.0 micrograms/kg/injection, schedule: Q01DX009 (ip), vehicle: saline + alcohol) and 177 % of control (dose: 10.0 micrograms/kg/injection, schedule: Q01DX009 (ip), vehicle: saline + alcohol).

Consider `COC(=O)C(CSC(c1ccccc1)(c1ccccc1)c1ccccc1)NC(=O)C(CC(N)=O)NC(=O)OCc1ccccc1` (stereo not drawn) (Cbz-Asn-Cys(Trt)-OMe; configuration not given here), for which the T/C was 108 % of control and 110 % of control (dose: 12.5 mg/kg/injection, schedule: Q01DX009 (ip), vehicle: distilled water + Tween-80); 102 % of control and 117 % of control (dose: 25.0 mg/kg/injection, schedule: Q01DX009 (ip), vehicle: distilled water + Tween-80); 109 % of control (dose: 50.0 mg/kg/injection, schedule: Q01DX009 (ip), vehicle: distilled water + Tween-80); 113 % of control (dose: 100.0 mg/kg/injection, schedule: Q01DX009 (ip), vehicle: distilled water + Tween-80); 116 % of control (dose: 200.0 mg/kg/injection, schedule: Q01DX009 (ip), vehicle: distilled water + Tween-80).

On to `C=CCN(CC=C)C(=O)CCN1CC1`, for which the T/C by setting is: (dose: 1.25 mg/kg/injection, schedule: Q01DX009 (ip), vehicle: saline) 100 % of control; (dose: 1.25 mg/kg/injection, schedule: Q04DX003 (ip), vehicle: saline) 102 % of control; (dose: 2.5 mg/kg/injection, schedule: Q01DX009 (ip), vehicle: saline) 100 % of control; (dose: 2.5 mg/kg/injection, schedule: Q04DX003 (ip), vehicle: saline) 100 % of control; (dose: 5.0 mg/kg/injection, schedule: Q01DX009 (ip), vehicle: saline) 100 % of control; (dose: 5.0 mg/kg/injection, schedule: Q04DX003 (ip), vehicle: saline) 105 % of control.

With `CCOc1c(Br)cc(Br)cc1/C=N/NS(=O)(=O)c1ccc(C)cc1`, the T/C was 102 % of control (dose: 12.5 mg/kg/injection, schedule: Q04DX003 (ip), vehicle: Klucel (hydroxypropylcellulose) (HPC)); 91 % of control under setting [1]; 107 % of control (dose: 25.0 mg/kg/injection, schedule: Q04DX003 (ip), vehicle: Klucel (hydroxypropylcellulose) (HPC)); 97 % of control (dose: 50.0 mg/kg/injection, schedule: Q01DX009 (ip), vehicle: Klucel (hydroxypropylcellulose) (HPC)); 104 % of control (dose: 50.0 mg/kg/injection, schedule: Q04DX003 (ip), vehicle: Klucel (hydroxypropylcellulose) (HPC)); 97 % of control (dose: 170.0 mg/kg/injection, schedule: Q04DX003 (ip), vehicle: Klucel (hydroxypropylcellulose) (HPC)).

With `COc1cc(C(=O)CO)cc(OC)c1OC(C)=O`, the T/C runs as follows: (dose: 100.0 mg/kg/injection, schedule: Q04DX003 (ip), vehicle: saline with Tween-80) 95 % of control; (dose: 200.0 mg/kg/injection, schedule: Q04DX003 (ip), vehicle: saline with Tween-80) 87 % of control.

Consider `O=C1NNC(=O)NN1`, for which the T/C was 118 % of control under setting [2] and 106 % of control under setting [3].

For `CC(=O)OC1C(CO)OC2C1Oc1nc(=N)c(F)cn12` (centres undefined), the T/C by setting is: (dose: 3.13 mg/kg/injection, schedule: Q01DX009 (ip), vehicle: saline) 88 % of control; (dose: 6.25 mg/kg/injection, schedule: Q01DX009 (ip), vehicle: saline) 93 % of control; under setting [4], 90 % of control; under setting [5], 86 % of control; under setting [6], 91 % of control.

As for `ClC1CCCC[N-]1.ClC1CCCC[N-]1.[Cl][Pt+2][Cl]` (centres undefined), the T/C under setting [7] is 91 % of control; the T/C under setting [8] is 97 % of control; the T/C under setting [9] was 89 % of control; the T/C under setting [10] is 108 % of control; the T/C under setting [11] is 105 % of control.

Regarding `Cc1cccc(C)c1NC(=O)Nc1ccc(Cl)cc1`, the T/C is, setting by setting: under setting [2], 93 % of control; under setting [3], 93 % of control; under setting [12], 87 % of control.

`ClCCN(CCCl)CCCN1c2ccccc2Sc2ccc(Cl)cc21`: the T/C runs as follows: (dose: 3.12 mg/kg/injection, schedule: Q01DX009 (ip), vehicle: saline with Tween-80) 120 % of control; under setting [7], 120 % of control; under setting [8], 117 % of control.

With `CC(C)(C)N1C(=O)N(C(C)(C)C)C1=O`, the T/C is 102 % of control (dose: 75.0 mg/kg/injection, schedule: Q01DX009 (ip), vehicle: other); 105 % of control (dose: 150.0 mg/kg/injection, schedule: Q01DX009 (ip), vehicle: other); 102 % of control (dose: 300.0 mg/kg/injection, schedule: Q01DX009 (ip), vehicle: other).

For `CC1CCC(=C(c2ccccc2)c2ccccc2)C(C)N1C` (centres undefined), the T/C (dose: 25.0 mg/kg/injection, schedule: Q04DX003 (ip), vehicle: saline with Tween-80) was 105 % of control and the T/C (dose: 50.0 mg/kg/injection, schedule: Q04DX003 (ip), vehicle: saline with Tween-80) is 93 % of control.

For the compound `C=CCNC(=S)NCC=C`, the T/C was 97 % of control under setting [2], 92 % of control under setting [3] and 102 % of control under setting [12].

For the compound `O=C1NC(Cc2ccc(N(CCCl)CCCl)cc2)C(=O)O1` (centres undefined), the T/C runs as follows: (dose: 0.1 mg/kg/injection, schedule: Q01DX009 (ip), vehicle: saline with Tween-80) 94 % of control; (dose: 0.2 mg/kg/injection, schedule: Q01DX009 (ip), vehicle: saline with Tween-80) 102 % of control; (dose: 0.4 mg/kg/injection, schedule: Q01DX009 (ip), vehicle: saline with Tween-80) 105 % of control; (dose: 3.0 mg/kg/injection, schedule: Q01DX009 (ip), vehicle: saline with Tween-80) 157 % of control; (dose: 3.13 mg/kg/injection, schedule: Q01DX009 (ip), vehicle: saline with Tween-80) 197 % of control; (dose: 6.0 mg/kg/injection, schedule: Q01DX009 (ip), vehicle: saline with Tween-80) 203 % of control. In addition, the T/C under setting [7] is 155 % of control.

Regarding `CC(Cc1ccccc1)NC1CC2CCC1C2` (centres undefined), the T/C is 101 % of control under setting [4], 102 % of control under setting [5] and 101 % of control under setting [6].

Take `COc1cc(C)c2c(=O)c3c(oc2c1)C(=O)c1c(O)c(OC)cc(O)c1C3=O`: the T/C was 105 % of control under setting [8], 101 % of control under setting [9], 96 % of control under setting [10] and 100 % of control under setting [11].

Turning to `[Cl][Ge]([c]1ccccc1)([c]1ccccc1)[c]1ccccc1`, the T/C runs as follows: under setting [2], 96 % of control; under setting [3], 96 % of control; under setting [12], 100 % of control.

For `Cc1ccc(CNc2ccc(Br)cc2)cc1`, the T/C runs as follows: under setting [2], 94 % of control; under setting [3], 91 % of control.

Regarding `ClCC[N+]12CC[N+](CCCl)(CC1)C2` (tested in a mixture with another compound), the T/C was 120 % of control under setting [6]; 115 % of control (dose: 100.0 mg/kg/injection, schedule: Q01DX009 (ip), vehicle: saline); 121 % of control (dose: 200.0 mg/kg/injection, schedule: Q01DX009 (ip), vehicle: saline).

As for `O=[N+]([O-])c1ccc(C(O)C=C(C(F)(F)F)C(F)(F)F)cc1` (centres undefined), the T/C (dose: 12.5 mg/kg/injection, schedule: Q01DX009 (ip), vehicle: Klucel (hydroxypropylcellulose) (HPC)) was 93 % of control and the T/C under setting [1] was 89 % of control.
